Data as given in patent US10934309B2, “Tricyclic quinone derivative” (Boston Biomedical, Inc., priority 2014, dated 2021).

Assays:
Format in all cases: cell-based, human
HCT-116 cells [1] = experiment: Proliferation inhibition assay of cancer cells (Test Example 1), HCT-116; details: Homo sapiens, HCT-116, 96 h, HCT-116 cells, cultured for 4 days, Cell Titer-Glo; read-out: IC50 (μM) HCT; concentration for 50% inhibition of cell proliferation (Bulk IC50 value)
Protocol: (§1) HCT-116 cells (derived from human colon adenocarcinoma), HT-29 cells (derived from human colon cancer), and FaDu cells (derived from human hypopharynx cancer) were obtained from American Type Culture Collection (ATCC). […] After cells were seeded at 300-600 cells/well onto black μClear-plate 384 well (Greiner bio-one Cat. No. 781091), a test substance was added such that the final concentration of DMSO is 0.1%, and cultured for 4 days. […] A test shown in Test example 1 was carried out for compounds obtained in the Examples.

HT-29 cells [2] = experiment: Inhibition assay of cancer cell sphere-forming ability (Test Example 2), HT-29; details: Homo sapiens, HT-29, 96 h, HT-29 cells, Ultra-Low Attachment plate, serum-free DMEM/F12 with B27, EGF, bFGF, insulin, 4 days, Cell Titer-Glo; read-out: IC50 (μM) HT; concentration for 50% inhibition of cell proliferation (Sphere IC50 value)
Protocol: (§2) HCT-116 cells (derived from human colon adenocarcinoma), HT-29 cells (derived from human colon cancer), FaDu cells (derived from human hypopharynx cancer) were obtained from American Type Culture Collection (ATCC). […] HCT-116 cells, HT-29 cells, and FaDu cells were seeded onto 384 Well Black Clear Bottom Ultra-Low Attachment Microplate (Corning Cat. […] A test substance was added so that the final concentration of DMSO is 0.1%, and then cultured for 4 days. […] A test shown in Test example 2 was carried out for compounds obtained in the Examples.

FaDu cells [3] = experiment: Inhibition assay of cancer cell sphere-forming ability (Test Example 2), FaDu; details: Homo sapiens, FaDu, 96 h, FaDu cells, Ultra-Low Attachment plate, serum-free DMEM/F12 with B27, EGF, bFGF, insulin, 4 days, Cell Titer-Glo; read-out: IC50 (μM) FaDu; concentration for 50% inhibition of cell proliferation (Sphere IC50 value)
Protocol: as §2

cancer cells [4] = experiment: Proliferation inhibition test of cancer cells, overall statement on Table 1; details: summary of Table 1
Protocol: HCT-116 cells (derived from human colon adenocarcinoma), HT-29 cells (derived from human colon cancer), and FaDu cells (derived from human hypopharynx cancer) were obtained from American Type Culture Collection (ATCC). HCT-116 cells and HT-29 cells were cultured using McCoy's 5a medium containing 10% fetal bovine serum (FBS) and 1% penicillin/streptomycin, and FaDu cells were cultured using MEM medium containing 10% FBS, 1% non-essential amino acid, 1% sodium pyruvate, and 1% penicillin/streptomycin, respectively, at 37° C. in the presence of 5% CO2. After cells were seeded at 300-600 cells/well onto black μClear-plate 384 well (Greiner bio-one Cat. No. 781091), a test substance was added such that the final concentration of DMSO is 0.1%, and cultured for 4 days. The number of living cells was then counted using Cell Titer-Glo (Registered trademark) Luminescent Cell Viability Assay (Promega) to calculate a concentration for 50% inhibition of cell proliferation of respective test substances (Bulk IC50 value; μM).

HT-29 cells [5] = experiment: Proliferation inhibition assay of cancer cells (Test Example 1), HT-29; details: Homo sapiens, HT-29, 96 h, HT-29 cells, cultured for 4 days, Cell Titer-Glo; read-out: IC50 (μM) HT; concentration for 50% inhibition of cell proliferation (Bulk IC50 value)
Protocol: as §1

HCT-116 cells [6] = experiment: Inhibition assay of cancer cell sphere-forming ability (Test Example 2), HCT-116; details: Homo sapiens, HCT-116, 96 h, HCT-116 cells, Ultra-Low Attachment plate, serum-free DMEM/F12 with B27, EGF, bFGF, insulin, 4 days, Cell Titer-Glo; read-out: IC50 (μM) HCT; concentration for 50% inhibition of cell proliferation (Sphere IC50 value)
Protocol: as §2

FaDu cells [7] = experiment: Proliferation inhibition assay of cancer cells (Test Example 1), FaDu; details: Homo sapiens, FaDu, 96 h, FaDu cells, cultured for 4 days, Cell Titer-Glo; read-out: IC50 (μM) FaDu; concentration for 50% inhibition of cell proliferation (Bulk IC50 value)
Protocol: as §1

cancer cells [8] = experiment: Inhibition test of cancer cell sphere-forming ability, overall statement on Table 2; details: summary of Table 2
Protocol: HCT-116 cells (derived from human colon adenocarcinoma), HT-29 cells (derived from human colon cancer), FaDu cells (derived from human hypopharynx cancer) were obtained from American Type Culture Collection (ATCC). HCT-116 cells and HT-29 cells were cultured using McCoy's 5a medium containing 10% fetal bovine serum (FBS) and 1% penicillin/streptomycin, and FaDu cells were cultured using MEM medium containing 10% FBS, 1% non-essential amino acid, 1% sodium pyruvate, and 1% penicillin/streptomycin, respectively, at 37° C. in the presence of 5% CO2. HCT-116 cells, HT-29 cells, and FaDu cells were seeded onto 384 Well Black Clear Bottom Ultra-Low Attachment Microplate (Corning Cat. No. 3827) using DMEM/F12 medium containing 2% B27 supplement (GIBCO), 20 ng/mL epidermal growth factor (EGF) (peprotech), 10 ng/mL basic fibroblast growth factor (bFGF) (peprotech), 5 μg/mL insulin (Sigma), and 1% penicillin/streptomycin to be 350-800 cells/well. A test substance was added so that the final concentration of DMSO is 0.1%, and then cultured for 4 days. The number of living cells was then counted using Cell Titer-Glo (registered trademark) Luminescent Cell Viability Assay (Promega) to calculate the concentration for 50% inhibition of cell proliferation of respective test substances (Sphere IC50 value; μM).

## CC(=O)c1cc2c(s1)C(=O)c1cccnc1C2=O [Example 1, 2-acetylthieno[2,3-g]quinoline-4,9-dione]
HCT-116 cells [1]
  IC50: 0.01 µM
HT-29 cells [2]
  IC50: 0.07 µM
FaDu cells [3]
  IC50: 0.02 µM
Cancer cells [4]
  effect on the inhibition of the proliferation of cancer cells (in words): particularly strong effect
HT-29 cells [5]
  IC50: 0.57 µM
HCT-116 cells [6]
  IC50: 0.02 µM
FaDu cells [7]
  IC50: 0.01 µM

## CC(=O)c1cc2c(s1)C(=O)c1ccncc1C2=O [Example 12, 2-acetylthieno[2,3-g]isoquinoline-4,9-dione]
Cancer cells [8]
  effect to inhibit cancer cell sphere-forming ability (in words): particularly strong effect
HCT-116 cells [1]
  IC50: 0.05 µM
HT-29 cells [2]
  IC50: 0.03 µM
FaDu cells [3]
  IC50: < 0.01 µM
Cancer cells [4]
  effect on the inhibition of the proliferation of cancer cells (in words): particularly strong effect
HT-29 cells [5]
  IC50: 0.18 µM
HCT-116 cells [6]
  IC50: 0.04 µM
FaDu cells [7]
  IC50: < 0.01 µM

## CC(O)c1cc2c(s1)C(=O)c1ccncc1C2=O (stereo not shown) [Example 13, 2-(1-hydroxyethyl)thieno[2,3-g]isoquinoline-4,9-dione]
Cancer cells [8]
  effect to inhibit cancer cell sphere-forming ability (in words): particularly strong effect
HCT-116 cells [1]
  IC50: 0.06 µM
HT-29 cells [2]
  IC50: 0.06 µM
FaDu cells [3]
  IC50: < 0.01 µM
HT-29 cells [5]
  IC50: 0.37 µM
HCT-116 cells [6]
  IC50: 0.05 µM
FaDu cells [7]
  IC50: 0.02 µM

## CC(C)(O)c1cc2c(s1)C(=O)c1ccncc1C2=O [Example 15, 2-(2-hydroxypropan-2-yl)thieno[2,3-g]isoquinoline-4,9-dione]
Cancer cells [8]
  effect to inhibit cancer cell sphere-forming ability (in words): particularly strong effect
HCT-116 cells [1]
  IC50: 0.34 µM
HT-29 cells [2]
  IC50: 0.46 µM
FaDu cells [3]
  IC50: < 0.01 µM
HT-29 cells [5]
  IC50: 0.61 µM
HCT-116 cells [6]
  IC50: 0.4 µM
FaDu cells [7]
  IC50: 0.04 µM

## O=C1c2cnccc2C(=O)c2sc(C(O)C3CC3)cc21 (stereo not shown) [Example 16, 2-[cyclopropyl(hydroxy)methyl]thieno[2,3-g]isoquinoline-4,9-dione]
Cancer cells [8]
  effect to inhibit cancer cell sphere-forming ability (in words): particularly strong effect
HCT-116 cells [1]
  IC50: 0.06 µM
HT-29 cells [2]
  IC50: 0.15 µM
FaDu cells [3]
  IC50: < 0.01 µM
Cancer cells [4]
  effect on the inhibition of the proliferation of cancer cells (in words): particularly strong effect
HT-29 cells [5]
  IC50: 0.58 µM
HCT-116 cells [6]
  IC50: 0.22 µM
FaDu cells [7]
  IC50: < 0.01 µM

## O=C1c2cnccc2C(=O)c2sc(C(=O)N3CCOCC3)cc21 [Example 20, 2-(morpholin-4-ylcarbonyl)thieno[2,3-g]isoquinoline-4,9-dione]
Cancer cells [8]
  effect to inhibit cancer cell sphere-forming ability (in words): particularly strong effect
HCT-116 cells [1]
  IC50: 0.05 µM
HT-29 cells [2]
  IC50: 0.06 µM
FaDu cells [3]
  IC50: < 0.01 µM
Cancer cells [4]
  effect on the inhibition of the proliferation of cancer cells (in words): particularly strong effect
HT-29 cells [5]
  IC50: 0.09 µM
HCT-116 cells [6]
  IC50: 0.06 µM
FaDu cells [7]
  IC50: < 0.01 µM

## CCN(CCOC)Cc1cc2c(s1)C(=O)c1ccncc1C2=O [Example 24, 2-{[ethyl(2-methoxyethyl)amino]methyl}thieno[2,3-g]isoquinoline-4,9-dione]
Cancer cells [8]
  effect to inhibit cancer cell sphere-forming ability (in words): particularly strong effect
HCT-116 cells [1]
  IC50: 0.34 µM
HT-29 cells [2]
  IC50: 0.18 µM
FaDu cells [3]
  IC50: < 0.01 µM
HT-29 cells [5]
  IC50: 0.65 µM
HCT-116 cells [6]
  IC50: 0.43 µM
FaDu cells [7]
  IC50: 0.03 µM

## O=C1c2cnccc2C(=O)c2sc(CNCC(F)F)cc21 [Example 26, 2-{[(2,2-difluoroethyl)amino]methyl}thieno[2,3-g]isoquinoline-4,9-dione]
Cancer cells [8]
  effect to inhibit cancer cell sphere-forming ability (in words): particularly strong effect
HCT-116 cells [1]
  IC50: 0.09 µM
HT-29 cells [2]
  IC50: 0.07 µM
FaDu cells [3]
  IC50: < 0.01 µM
HT-29 cells [5]
  IC50: 0.45 µM
HCT-116 cells [6]
  IC50: 0.17 µM
FaDu cells [7]
  IC50: 0.02 µM

## CC(=O)N1CCN(Cc2cc3c(s2)C(=O)c2ccncc2C3=O)CC1 [Example 27, 2-[(4-acetylpiperazin-1-yl)methyl]thieno[2,3-g]isoquinoline-4,9-dione]
Cancer cells [8]
  effect to inhibit cancer cell sphere-forming ability (in words): particularly strong effect
HCT-116 cells [1]
  IC50: 0.5 µM
HT-29 cells [2]
  IC50: 0.06 µM
FaDu cells [3]
  IC50: < 0.01 µM
HT-29 cells [5]
  IC50: 0.4 µM
HCT-116 cells [6]
  IC50: 0.47 µM
FaDu cells [7]
  IC50: 0.03 µM

## O=C1c2cc(C(=O)N3CCOCC3)oc2C(=O)c2sccc21 [Example 55, 2-(morpholin-4-ylcarbonyl)thieno[3,2-f][1]benzofuran-4,8-dione]
Cancer cells [8]
  effect to inhibit cancer cell sphere-forming ability (in words): particularly strong effect
HCT-116 cells [1]
  IC50: 0.05 µM
HT-29 cells [2]
  IC50: 0.04 µM
FaDu cells [3]
  IC50: 0.01 µM
HT-29 cells [5]
  IC50: 0.58 µM
HCT-116 cells [6]
  IC50: 0.04 µM
FaDu cells [7]
  IC50: 0.06 µM
